Experimental data reported in patent US20240124422A1, “MUTANT PI3K-ALPHA INHIBITORS AND THEIR USE AS PHARMACEUTICALS” (Prelude Therapeutics Incorporated, priority 2022, published 2024).

Each compound was assayed on phosphorylation of AKT on Ser473 as a readout of the PI3K pathway in SKBR3 (PIK3CA WT) cells (assay: PI3K pathway activation assay, pAKT Ser473 HTRF, SKBR3 cells). Settings: Homo sapiens, SK-BR-3, 2 h, two hours of treatment.
Type: cell-based
Description: (§1) The inhibitory activity of compounds was evaluated by measuring phosphorylation of AKT on Ser473 as a readout of the PI3K pathway using HTRF (CisBio catalog number: 64AKSPE). These studies were conducted in the T-47D (heterozygous PIK3CA H1047R) and SKBR3 (PIK3CA WT) cell lines. Cells were maintained in a 37° C. incubator at 5% CO2 in the following media: T-47D: RPMI 1640, ATCC© Modification (Gibco, A10491-01) supplemented with 10% v/v FBS (Gibco, 26140-079), 1% penicillin streptomycin (Gibco, 15140-122), and 7.4 ug/mL insulin (MilliporeSigma, I9278); SKBR3: McCoy's 5a (Modified) Medium (Gibco, 16600-082) supplemented with 10% v/v FBS (Gibco, 26140-079). Cells were seeded in 384-well plates at a density of 4,000 cells/well. Compounds dissolved in DMSO were added using a digital dispense (D300E, Tecan) 10-point serial dilution. After two hours of treatment, cells were lysed for thirty minutes and then incubated with detection reagents per HTRF kit material and manufacturer's instructions. Fluorescence signal was measured with a multimode plate reader (Envision 2105, Perkin Elmer). Fluorescent signal was normalized to background and DMSO controls to obtain percent inhibition/activity for each compound.

`Cc1cc(C(C)Nc2ccccc2C(N)=O)c2nc(N3Cc4ccccc4C3)n(C)c(=O)c2c1` (centres unmarked) [Example 4, 2-((1-(2-(isoindolin-2-yl)-3,6-dimethyl-4-oxo-3,4-dihydroquinazolin-8-yl)ethyl)amino)benzamide] showed an IC50 of over 10000 nM.

What follows are compounds tested on phosphorylation of AKT on Ser473 as a readout of the PI3K pathway in T-47D (heterozygous PIK3CA H1047R) cells (assay: PI3K pathway activation assay, pAKT Ser473 HTRF, T-47D cells). Settings: Homo sapiens, T47D, 2 h, two hours of treatment.
Type: cell-based
Description: as §1

`Cc1cc(C(C)Nc2ccccc2C(N)=O)c2nc(N3Cc4ccccc4C3)n(C)c(=O)c2c1` (centres unmarked) [Example 4, 2-((1-(2-(isoindolin-2-yl)-3,6-dimethyl-4-oxo-3,4-dihydroquinazolin-8-yl)ethyl)amino)benzamide] and `Cc1cc(C(C)Nc2ccccc2C(=O)O)c2nc(N3CCc4ccccc4C3)n(C)c(=O)c2c1` (centres unmarked) [Example 51, 2-[1-[2-(3,4-dihydro-1H-isoquinolin-2-yl)-3,6-dimethyl-4-oxoquinazolin-8-yl]ethylamino]benzoic acid] fall in the same range of IC50: 500 to 10000 nM for the first, 500 to 10000 nM for the second.

Compared with `Cc1cc(C(C)Nc2ccccc2C(=O)O)c2nc(N3CC4(C3)CC(F)(F)C4)n(C)c(=O)c2c1` (centres unmarked) [Example 109, 2-[1-[2-(6,6-difluoro-2-azaspiro[3.3]heptan-2-yl)-3,6-dimethyl-4-oxoquinazolin-8-yl]ethylamino]benzoic acid], `Cc1cc(C(C)Nc2ccccc2C(=O)O)c2nc(N3CC4CC3C4)n(C)c(=O)c2c1` (centres unmarked) [Example 117, 2-((1-(2-(2-Azabicyclo[2.1.1]hexan-2-yl)-3,6-dimethyl-4-oxo-3,4-dihydroquinazolin-8-yl)ethyl)amino)benzoic acid] is higher in IC50: under 500 nM for the first, 500 to 10000 nM for the second.

`Cc1cc(C(C)Nc2ncccc2C(=O)O)c2nc(N3Cc4ccccc4C3)n(C)c(=O)c2c1` (centres unmarked) [Example 36, 2-((1-(2-(isoindolin-2-yl)-3,6-dimethyl-4-oxo-3,4-dihydroquinazolin-8-yl)ethyl)amino)nicotinic acid] and `Cc1cc(C(C)Nc2c(F)cccc2C(=O)O)c2nc(N3Cc4ccccc4C3)n(C)c(=O)c2c1` (centres unmarked) [Example 45, 3-fluoro-2-((1-(2-(isoindolin-2-yl)-3,6-dimethyl-4-oxo-3,4-dihydroquinazolin-8-yl)ethyl)amino)benzoic acid] fall in the same range of IC50: 500 to 10000 nM for the first, 500 to 10000 nM for the second.

Compared with `Cc1cc(C(C)Nc2ccccc2C(=O)O)c2nc(N3CCC(c4ccccc4)C3)n(C)c(=O)c2c1` (single isomer, unassigned) [Example 52, 2-[1-[3,6-dimethyl-4-oxo-2-(3-phenylpyrrolidin-1-yl)quinazolin-8-yl]ethylamino]benzoic acid], `Cc1cc(C(C)Nc2ccccc2C(=O)O)c2nc(N3CC4CCC4C3)n(C)c(=O)c2c1` (centres unmarked) [Example 112, 2-[1-[2-(3-azabicyclo[3.2.0]heptan-3-yl)-3,6-dimethyl-4-oxoquinazolin-8-yl]ethylamino]benzoic acid] is lower in IC50: 500 to 10000 nM for the first, under 500 nM for the second.

`Cc1cc(C(C)Nc2cc(F)ncc2C(=O)O)c2nc(N3CC4CC4C3)n(C)c(=O)c2c1` (centres unmarked) [Example 125, 4-((1-(2-(3-Azabicyclo[3.1.0]hexan-3-yl)-3,6-dimethyl-4-oxo-3,4-dihydroquinazolin-8-yl)ethyl)amino)-6-fluoronicotinic acid] and `COc1ccc(NC(C)c2cc(C)cc3c(=O)n(C)c(N4CC5CC5C4)nc23)c(C(=O)O)c1` (centres unmarked) [Example 122, 2-[1-[2-(3-Azabicyclo[3.1.0]hexan-3-yl)-3,6-dimethyl-4-oxoquinazolin-8-yl]ethylamino]-5-methoxybenzoic acid] fall in the same range of IC50: 500 to 10000 nM for the first, 500 to 10000 nM for the second.

`Cc1cc(C(Nc2ccccc2C(=O)O)C(F)F)c2nc(N3CC4CC4C3)n(C)c(=O)c2c1` (centres unmarked) [Example 96, 2-((1-(2-(3-azabicyclo[3.1.0]hexan-3-yl)-3,6-dimethyl-4-oxo-3,4-dihydro-quinazolin-8-yl)-2,2-difluoroethyl)amino)benzoic acid] and `Cc1cc(C(C)Nc2ccccc2C(=O)O)c2nc(N3CC4CC4C3)n(CC(F)(F)F)c(=O)c2c1` (centres unmarked) [Example 103, 2-((1-(2-(3-Azabicyclo[3.1.0]hexan-3-yl)-6-methyl-4-oxo-3-(2,2,2-trifluoroethyl)-3,4-dihydroquinazolin-8-yl)ethyl)amino)benzoic acid] fall in the same range of IC50: 500 to 10000 nM for the first, 500 to 10000 nM for the second.

Compared with `Cc1cc(C(C)Nc2ccccc2C(=O)O)c2nc(N3C[C@H]4CCC[C@H]4C3)n(C)c(=O)c2c1` (stereo partly drawn) [Example 113, 2-[1-[3,6-dimethyl-4-oxo-2-[(3aR,6aS)-3,3a,4,5,6,6a-hexahydro-1H-cyclopenta[c]pyrrol-2-yl]quinazolin-8-yl]ethylamino]benzoic acid], `Cc1cc(C(C)Nc2ccccc2C(=O)O)c2nc(N3CCCC34CC4)n(C)c(=O)c2c1` (centres unmarked) [Example 114, 2-((1-(3,6-dimethyl-4-oxo-2-(4-azaspiro[2.4]heptan-4-yl)-3,4-dihydroquinazolin-8-yl)ethyl)amino)benzoic acid] is higher in IC50: under 500 nM for the first, 500 to 10000 nM for the second.

First: CC(Nc1ccccc1C(=O)O)c1cc(C#N)cc2c(=O)n(C)c(N3Cc4ccccc4C3)nc12 (centres unmarked) [Example 50, 2-((1-(6-cyano-2-(isoindolin-2-yl)-3-methyl-4-oxo-3,4-dihydroquinazolin-8-yl)ethyl)amino)benzoic acid]
Second: CC(Nc1ccccc1C(=O)O)c1cc(C(F)(F)F)cc2c(=O)n(C)c(N3Cc4ccccc4C3)nc12 (centres unmarked) [Example 15, 2-((1-(2-(isoindolin-2-yl)-3-methyl-4-oxo-6-(trifluoromethyl)-3,4-dihydroquinazolin-8-yl)ethyl)amino)benzoic acid]
The IC50 of the first is higher: 500 to 10000 nM for the first, under 500 nM for the second.

`Cc1cc(C(C)Nc2ccccc2C(=O)O)c2nc(N3CCC4(CC3)CC(NC(=O)OC(C)(C)C)C4)n(C)c(=O)c2c1` (centres unmarked) [Example 107, 2-[1-[3,6-dimethyl-2-[2-[(2-methylpropan-2-yl)oxycarbonylamino]-7-azaspiro[3.5]nonan-7-yl]-4-oxoquinazolin-8-yl]ethylamino]benzoic acid] and `Cc1cc(C(C)Nc2ccccc2C(=O)O)c2nc(N3CCC(NC(=O)OC(C)(C)C)C3)n(C)c(=O)c2c1` (centres unmarked) [Example 110, 2-[1-[3,6-dimethyl-2-[3-[(2-methylpropan-2-yl)oxycarbonylamino]pyrrolidin-1-yl]-4-oxoquinazolin-8-yl]ethylamino]benzoic acid] fall in the same range of IC50: 500 to 10000 nM for the first, 500 to 10000 nM for the second.

`Cc1cc(C(C)Nc2ccccc2C(=O)O)c2nc(-c3ccn[nH]3)n(C)c(=O)c2c1` (centres unmarked) [Example 25, 2-((1-(3,6-dimethyl-4-oxo-2-(1H-pyrazol-5-yl)-3,4-dihydroquinazolin-8-yl)ethyl)amino)benzoic acid] and `Cc1cc(C(C)Nc2ccccc2C(=O)O)c2nc(O)n(C)c(=O)c2c1` (centres unmarked) [Example 42, 2-((1-(2-hydroxy-3,6-dimethyl-4-oxo-3,4-dihydroquinazolin-8-yl)ethyl)amino) benzoic acid] fall in the same range of IC50: 500 to 10000 nM for the first, 500 to 10000 nM for the second.

`Cc1cc(C(C)Sc2ccccc2C(=O)O)c2nc(N3Cc4ccccc4C3)n(C)c(=O)c2c1` (centres unmarked) [Example 13, 2-((1-(2-(isoindolin-2-yl)-3,6-dimethyl-4-oxo-3,4-dihydroquinazolin-8-yl)ethyl)thio)benzoic acid] and `Cc1cc(C(C)Nc2ccccc2C(=O)O)c2nc(N3Cc4ccccc4C3)n([C@H]3C[C@H](C#N)C3)c(=O)c2c1` (some centres unmarked) [Example 75, 2-((1-(3-((1r,3r)-3-Cyanocyclobutyl)-2-(isoindolin-2-yl)-6-methyl-4-oxo-3,4-dihydroquinazolin-8-yl)ethyl)amino)benzoic acid] fall in the same range of IC50: 500 to 10000 nM for the first, 500 to 10000 nM for the second.

First: Cc1cc(C(C)Nc2ccccc2C(=O)O)c2nc(N3CCN(C(=O)C4CCCC4)CC3)n(C)c(=O)c2c1 (centres unmarked) [Example 91, 2-((1-(2-(4-(Cyclopentanecarbonyl)piperazin-1-yl)-3,6-dimethyl-4-oxo-3,4-dihydroquinazolin-8-yl)ethyl)amino)benzoic acid]
Second: COCC(=O)N1CCN(c2nc3c(C(C)Nc4ccccc4C(=O)O)cc(C)cc3c(=O)n2C)CC1 (centres unmarked) [Example 93, 2-((1-(2-(4-(2-Methoxyacetyl)piperazin-1-yl)-3,6-dimethyl-4-oxo-3,4-dihydro-quinazolin-8-yl)ethyl)amino)benzoic acid]
The IC50 of the first is lower: under 500 nM for the first, 500 to 10000 nM for the second.

Compound `Cc1cc(C(C)Nc2ccccc2C(=O)O)c2nc(N3C[C@@H]4[C@H](C3)[C@H]4C(=O)N(C)C(C)C)n(C)c(=O)c2c1` (stereo partly drawn) [Example 81, 2-((1-(2-((1R,5S,6R)-6-(Isopropyl(methyl)carbamoyl)-3-azabicyclo[3.1.0]hexan-3-yl)-3,6-dimethyl-4-oxo-3,4-dihydroquinazolin-8-yl)ethyl)amino)benzoic acid] has an IC50 of under 500 nM.

Same assay, conditions: two hours of treatment, read-out: T47D pAKT IC50

`Cc1cc(C(C)Nc2ccccc2C(=O)O)c2nc(N3CC4CCC3C4)n(C)c(=O)c2c1` (single isomer, unassigned) [Example 101, 2-((1-(2-(2-Azabicyclo[2.2.1]heptan-2-yl)-3,6-dimethyl-4-oxo-3,4-dihydro-quinazolin-8-yl)ethyl)amino)benzoic acid] and `Cc1cc(C(C)Nc2ccccc2C(=O)O)c2nc(N3C[C@@H]4[C@H](C3)[C@H]4NC(=O)OCC3CCCO3)n(C)c(=O)c2c1` (stereo partly drawn) [Example 64, 2-((1-(3,6-dimethyl-4-oxo-2-((1R,5S,6s)-6-((((tetrahydrofuran-2-yl)methoxy)carbonyl)amino)-3-azabicyclo[3.1.0]hexan-3-yl)-3,4-dihydroquinazolin-8-yl)ethyl)amino)benzoic acid] fall in the same range of IC50: 500 to 10000 nM for the first, 500 to 10000 nM for the second.

Compound `Cc1cc(C(C)Nc2ccccc2C(=O)O)c2nc(N3C[C@@H]4C(NC(=O)OCC(F)(F)F)[C@@H]4C3)n(C)c(=O)c2c1` (stereo partly drawn) [Example 60, 2-((1-(3,6-dimethyl-4-oxo-2-((1R,5S,6s)-6-(((2,2,2-trifluoroethoxy)carbonyl)amino)-3-azabicyclo[3.1.0]hexan-3-yl)-3,4-dihydroquinazolin-8-yl)ethyl)amino)benzoic acid] has an IC50 of 500 to 10000 nM.
